Results as given in patent US20110118337A1, “Method of Using Compositions Comprising MIR-192 and/or MIR-215 for the Treatment of Cancer” (Merck Sharp & Dohme Corp., priority 2008, published 2011).

Key:
Assay type in all cases: cell-based, human
HCT116DICER^ex5 cells [1] = assay: Cell cycle FACS screen of pools of three siRNAs per gene (G1 after nocodazole, G2/M after aphidicolin); settings: pools of 3 siRNAs/gene at 100 nM final, FACS 66 hours post-transfection, average of two experiments
Source text: To identify targets whose modulation influences the cell cycle arrest phenotype observed with miR-192 expression, the 62 candidate genes identified as described in Example 2 and shown in TABLE 3 were silenced individually by transfecting a pool of 3 gene-specific siRNA duplexes per gene (each directed to a different region of the gene) into HCT116DICER^ex5 cells. The siRNA duplex sequences (3 duplexes per gene) used to target each of the 62 genes are shown below in TABLE 5. The siRNA duplex oligonucleotides were obtained from Sigma-Genesys, as described in Linsley, P. S. et al., Mol Cell Biol 27:2240-2252 (2007).
HCT116DICER^ex5 cells were transiently transfected with pools of three different siRNA duplexes per gene at a 100 nM final concentration using Lipofectamine RNAiMax (Invitrogen), according to the manufacturer's instructions. At 48 hours post transfection, cells were left untreated, treated with nocodazole (100 ng/mL, Sigma-Aldrich), or treated with aphidicolin (2 μg/mL, Sigma-Aldrich) for an additional 18 hours before harvesting. The cells transfected with the siRNA pools were then screened by FACS analysis as described in Example 3 for the percentage of cells arrested in G1 or G2/M as compared to the negative siRNA luciferase control.
The siRNA pools tested in this screen were ranked according to the percentage of cells arrested in G1 or G2/M following transfection, as compared with a negative control siRNA targeting luciferase. To avoid being misled by possible RNAi off-target effects, the siRNA pools were deconvoluted to identify genes for which at least 2 different siRNA duplexes from the pool caused the cell cycle arrest phenotype (data not shown).
TABLE 6 summarizes the data obtained 66 hours post-transfection by FACS analysis showing the cell cycle distribution of the HCT116DICER^ex5 cells transfected with siRNA pools of 3 siRNAs/gene. Each pool was analyzed in two separate experiments, and the average percentage of the cells trapped in G1 (following nocodazole treatment), or G2/M (following aphidicolin treatment) are shown in TABLE 6.

[2] = tested on: CDC7, LMNB2, MAD2L1 and CUL5; assay: Western blot analysis; settings: HCT116DICER^ex5 cells, 10 nM, data not shown
Protocol: HCT116DICER^ex5 cells were transfected with 10 nM siRNA against luciferase or 10 nM miR-192 or 10 nM miR-192 mutant, and lysates were prepared at 28 hours or 48 hours post-transfection. For immunoblotting, 30 μg of whole cell lysate extracted in a modified RIPA buffer (150 mM NaCl, 50 mM Tris pH 7.4, 1 mM EDTA, 1% NP-40, 0.1% SDS) was used per sample. CDC7, LMNB2, MAD2L1 and CUL5 were detected by Western blot using anti-CDC7 (sc-56275, Santa Cruz Biotechnology Inc.), anti-LMNB2 (MAB3536, Millipore), anti-MAD2L1 (ab55452, Abcam) and anti-CUL5 (Invitrogen) antibodies, and protein levels were compared to the level of β-actin expression as detected by an anti-β-actin antibody (Abcam).

HCT116DICER^ex5 cells [3] = assay: Transfection of siRNA pools (G1 or G2 gene set) at suboptimal levels, cell cycle FACS analysis (nocodazole or aphidicolin); settings: 10 nM; for % G1 / % G2: 66 hours post transfection
Protocol: […] At 48 hours post-transfection into HCT116DICER^ex5 cells, the cells were treated with nocodazole for an additional 18 hours prior to FACS analysis.
[…] At 48 hours post-transfection into HCT116DICER^ex5 cells, the cells were treated with aphidicolin for an additional 18 hours prior to FACS analysis.

## miR-192: Synthetic duplex mimetic of miR-192, guide CUGACCUAUGAAUUGACAGCC (SEQ ID NO:1), passenger SEQ ID NO:7 (sense CUGUCAAUUCAUCGGUCUGAU; listed as RNA, chemistry not given here; listed as Homo sapiens)
HCT116DICER^ex5 cells [1]; aphidicolin 2 μg/mL 18 h
  % G2 (Avg), Aphidicholin+: 54.9%
HCT116DICER^ex5 cells [1]; nocodazole 100 ng/mL 18 h
  % G1 (Avg), Nocodazole+: 43.6%
[2]
  protein level: downregulated
HCT116DICER^ex5 cells [3]; after aphidicolin treatment
  % G1: 50.4%
  % G2: 44.7%
HCT116DICER^ex5 cells [3]; aphidicolin
  G2 arrest phenotype: induced a G2-arrest phenotype
HCT116DICER^ex5 cells [3]; nocodazole
  G1 arrest phenotype: induced a G1-arrest phenotype
  % G1: 43.9%
  % G2: 53.6%
